Results as given in US20090054509A1, “Octahydropentalene-Substituted Pyrazoline Derivatives, Their Prepartion and Use as Medicaments” (LABORATORIOS DEL DR. ESTEVE, S.A., priority 2005, published 2009).

What was measured:
[1] = biological target: T1, recombinant human cannabinoid 1 receptor (CB1) (Homo sapiens, UniProt P21554); test: [35S]GTPγS binding assay, antagonism against WIN 55,212-2; format: biochemical; details: compound at 1 μM against WIN 55,212-2 dose response, CHO-hCB1 membranes, 100% = effect of internal standard CB1-antagonist
T1 construct: expressed in transfected cells; membranes prepared
T1 sequence (P21554 whole entry): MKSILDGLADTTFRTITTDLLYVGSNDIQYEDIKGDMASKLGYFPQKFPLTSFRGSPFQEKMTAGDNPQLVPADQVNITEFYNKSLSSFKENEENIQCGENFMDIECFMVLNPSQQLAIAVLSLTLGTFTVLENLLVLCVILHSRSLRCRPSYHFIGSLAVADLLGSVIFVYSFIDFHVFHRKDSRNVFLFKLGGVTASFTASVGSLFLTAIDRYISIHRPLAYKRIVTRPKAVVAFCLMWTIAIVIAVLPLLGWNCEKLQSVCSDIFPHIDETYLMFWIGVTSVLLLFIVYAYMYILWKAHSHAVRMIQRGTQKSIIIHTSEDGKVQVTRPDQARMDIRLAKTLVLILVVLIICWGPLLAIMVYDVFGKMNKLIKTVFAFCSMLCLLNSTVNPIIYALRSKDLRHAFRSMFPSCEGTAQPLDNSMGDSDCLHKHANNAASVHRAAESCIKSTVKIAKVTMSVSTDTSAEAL
Protocol: Chinese hamster ovary (CHO) cells stably expressing recombinant human cannabinoid 1 receptor (CB1) were cultured in nutrient mixture Ham's F 12 supplemented with 10% heat-inactivated fetal bovine serum, 2 mM L-glutamine, 50 U/ml penicillin, 50 U/ml streptomycin and 0.5 mg/ml geneticin. In order to obtain cells, culture flasks were washed twice with phosphate buffered saline and scraped. Then, cells were collected by centrifugation (200×g, 10 min) and stored dry at −80° C. Cells were homogenized in ice-cold 20 mM HEPES, 10 mM EDTA (pH 7.5) and centrifuged at 40,000×g for 15 min at 4° C. The pellet was resuspended in 20 mM HEPES, 0.1 mM EDTA (pH 7.5) and centrifuged for 15 min at 4° C. The final pellet was resuspended in 20 mM HEPES, 0.1 mM EDTA (pH 7.5), and divided in aliquots and stored at −80° C. until use.
The reaction was performed in 96-well plates. Membranes (15 µg protein/well) were incubated for 60 min at 30° C. in buffer (50 mM HEPES, 100 mM KCl, 5 mM MgCl2, 1 mM EDTA, 0.1% wt/vol bovine serum albumin, 5 μM GDP, saponin (10 μg/ml), 0.5 nM [^35S]GTPγS, pH 7.4) with compound at 1 μM final concentration in either the absence or presence of dose response curve of agonist WIN 55, 212-2 between 3 nM and 3 μM. The incubation was terminated by rapid filtration through Millipore Multiscreen glass fiber FB, and rinsed two-times with ice-cold assay buffer. Filter plates were dried and 30 μl of scintillation liquid was added. Radioactivity was determined using Wallac Microbeta Trilux. Each experiment was performed at least in duplicate. A WIN 55, 212-2 dose-response was systematically performed.
The average of basal [^35S]GTPγS binding was subtracted from all binding data. In order to compare the antagonism results from one screening campaign to another one, the difference between the maximal agonist effect of WIN 55, 212-2 alone, and the maximal antagonism effect due to WIN 55, 212-2 with an internal standard CB1-antagonist was defined as 100%.

[2] = In vivo testing for antiobesic activity, acute treatment; details: rats, acute oral administration; body weight difference versus control
Protocol: Normally handled rats were habituated to a reversed cycle 12/12 h, and the compound as well as saline was acutely orally administered. After administration the cumulated food intake (g) was measured at 6 h and 23 h. Following that the difference in body weight between control and compound treated animals was measured.

| Antagonism (%) ([1]; hydrochloride) | Compound | Antagonism (%) [1] | reduction of body weight [2] |
| --- | --- | --- | --- |
|  | COc1ccc([C@H]2[C@@H](C)C(C(=O)NN3CC4CCCC4C3)=NN2c2ccc(Cl)cc2Cl)cc1.Cl (relative stereo) [Example 7, cis-1-(2,4-dichlorophenyl)-N-(hexahydrocyclopenta[c]pyrrol-2(1H)-yl)-5-(4-methoxyphenyl)-4-methyl-4,5-dihydro-1H-pyrazole-3-carboxamide hydrochloride] | 148% |  |
|  | C[C@H]1C(C(=O)NN2CC3CCCC3C2)=NN(c2ccc(Cl)cc2Cl)[C@H]1c1ccc(Br)cc1.Cl (relative stereo) [Example 3, cis-5-(4-bromophenyl)-1-(2,4-dichlorophenyl)-N-(hexahydrocyclopenta-[c]pyrrol-2(1H)-yl)-4-methyl-4,5-dihydro-1H-pyrazole-3-carboxamide hydrochloride] | 99 ± 2% |  |
| 102 ± 7% | C[C@H]1C(C(=O)NN2CC3CCCC3C2)=NN(c2ccc(Cl)cc2Cl)[C@H]1c1ccc(Cl)cc1.Cl (single isomer, unassigned) [1 (HCl), cis-5-(4-chlorophenyl)-1-(2,4-dichlorophenyl)-N-(hexahydrocyclopenta-[c]pyrrol-2(1H)-yl)-4-methyl-4,5-dihydro-1H-pyrazole-3-carboxamide hydrochloride] |  |  |
| 112 ± 0% | C[C@H]1C(C(=O)NN2CC3CCCC3C2)=NN(c2ccc(Cl)cc2Cl)[C@H]1c1ccc(Cl)cc1.Cl (single isomer, unassigned) [Example 1, cis-5-(4-chlorophenyl)-1-(2,4-dichlorophenyl)-N-(hexahydrocyclopenta-[c]pyrrol-2(1H)-yl)-4-methyl-4,5-dihydro-1H-pyrazole-3-carboxamide hydrochloride] |  | good activity |
|  | C[C@H]1C(C(=O)NN2CC3CCCC3C2)=NN(c2ccc(Cl)cc2Cl)[C@H]1c1ccc(F)cc1.Cl (relative stereo) [Example 5, cis-1-(2,4-dichlorophenyl)-5-(4-fluorophenyl)-N-(hexahydrocyclopenta-[c]pyrrol-2(1H)-yl)-4-methyl-4,5-dihydro-1H-pyrazole-3-carboxamide hydrochloride] | 108 ± 13% |  |
